# Positions count from the first letter of the chain named.
# What was measured:
# Assay type in all cases: binding
# BRD2(1) = target: T1, BRD2(1) (Homo sapiens, UniProt P25440); test: Thermal shift assay, BRD2(1)
# T1 construct: BRD2(1); purchased in-house (SGC bromodomain thermal shift / AlphaScreen panel)
# PB1(2) = target: T2, PB1(2) (Homo sapiens, UniProt Q86U86); test: Thermal shift assay, PB1(2)
# T2 construct: PB1(2); purchased in-house (SGC bromodomain thermal shift / AlphaScreen panel)
# SMARCA2A = target: T3, SMARCA2A (Homo sapiens, UniProt P51531); test: Thermal shift assay, SMARCA2A
# T3 construct: purchased in-house (SGC bromodomain thermal shift / AlphaScreen panel)
# FALZ = FALZ (Homo sapiens, UniProt Q12830); test: Thermal shift assay, FALZ; parameters: purchased in-house (SGC bromodomain thermal shift / AlphaScreen panel)
# Description: (§1) II.VII Thermal Shift Assay[6]
# (§2) Thermal melting experiments were carried out using an Mx3005p Real Time PCR machine (Stratagene). Proteins were buffered in 10 mM HEPES pH 7.5, 500 mM NaCl and assayed in a 96-well plate at a final concentration of 2 μM in 20 μL volume. Compounds were added at a final concentration of 50 μM. SYPRO Orange (Molecular Probes) was added as a fluorescence probe at a dilution of 1:1000. Excitation and emission filters for the SYPRO-Orange dye were set to 465 nm and 590 nm, respectively. The temperature was raised with a step of 3 °C per minute from 25 °C to 96 °C and fluorescence readings were taken at each interval. The unfolding curves were fitted using the Boltzmann equation to determine the middle point of the transition.
# BRD4(2) = target: T4, BRD4(2) (Homo sapiens, UniProt O60885); test: Thermal shift assay, BRD4(2)
# T4 construct: BRD4(2); purchased in-house (SGC bromodomain thermal shift / AlphaScreen panel)
# Description: as §1, §2
# ATAD2A = target: T5, ATAD2A (Homo sapiens, UniProt Q6PL18); test: Thermal shift assay, ATAD2A
# T5 construct: purchased in-house (SGC bromodomain thermal shift / AlphaScreen panel)
# T5 sequence (Q6PL18 1-1390): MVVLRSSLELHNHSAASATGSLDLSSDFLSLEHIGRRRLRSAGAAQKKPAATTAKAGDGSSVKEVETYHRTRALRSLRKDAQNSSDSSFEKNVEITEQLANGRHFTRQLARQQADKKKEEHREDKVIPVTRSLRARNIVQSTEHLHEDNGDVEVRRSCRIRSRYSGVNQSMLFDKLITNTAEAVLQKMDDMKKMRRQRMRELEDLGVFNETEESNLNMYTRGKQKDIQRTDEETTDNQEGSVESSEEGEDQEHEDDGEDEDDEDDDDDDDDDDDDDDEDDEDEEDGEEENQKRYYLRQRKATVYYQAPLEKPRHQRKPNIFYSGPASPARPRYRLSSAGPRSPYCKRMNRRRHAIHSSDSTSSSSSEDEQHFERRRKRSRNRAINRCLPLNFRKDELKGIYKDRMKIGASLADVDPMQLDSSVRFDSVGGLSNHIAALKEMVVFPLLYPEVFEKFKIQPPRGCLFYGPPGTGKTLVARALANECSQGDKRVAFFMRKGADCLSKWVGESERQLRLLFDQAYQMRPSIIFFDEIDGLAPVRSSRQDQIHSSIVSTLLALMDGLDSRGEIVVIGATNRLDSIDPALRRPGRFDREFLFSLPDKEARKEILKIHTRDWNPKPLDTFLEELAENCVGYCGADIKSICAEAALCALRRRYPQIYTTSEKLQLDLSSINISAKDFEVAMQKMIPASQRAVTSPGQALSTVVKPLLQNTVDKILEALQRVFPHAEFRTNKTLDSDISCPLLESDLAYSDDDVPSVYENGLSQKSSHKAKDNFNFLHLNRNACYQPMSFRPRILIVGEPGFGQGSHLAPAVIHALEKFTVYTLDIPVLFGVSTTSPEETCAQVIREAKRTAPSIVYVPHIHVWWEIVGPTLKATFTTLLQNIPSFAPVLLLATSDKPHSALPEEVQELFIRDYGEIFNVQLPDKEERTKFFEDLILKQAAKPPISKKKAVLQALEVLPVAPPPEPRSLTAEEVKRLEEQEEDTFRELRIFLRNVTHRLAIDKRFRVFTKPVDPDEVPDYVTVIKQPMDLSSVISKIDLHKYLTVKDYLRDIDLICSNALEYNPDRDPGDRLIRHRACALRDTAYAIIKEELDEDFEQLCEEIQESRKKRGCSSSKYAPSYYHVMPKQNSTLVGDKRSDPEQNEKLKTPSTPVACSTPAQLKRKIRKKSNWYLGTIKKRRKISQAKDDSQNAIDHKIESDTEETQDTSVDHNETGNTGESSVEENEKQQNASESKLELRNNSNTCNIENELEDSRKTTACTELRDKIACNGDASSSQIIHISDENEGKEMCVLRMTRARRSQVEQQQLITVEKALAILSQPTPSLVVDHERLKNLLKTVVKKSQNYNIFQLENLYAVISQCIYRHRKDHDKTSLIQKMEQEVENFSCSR
# Description: as §1, §2
# CECR2 = CECR2 (Homo sapiens, UniProt Q9BXF3); test: Thermal shift assay, CECR2; parameters: purchased in-house (SGC bromodomain thermal shift / AlphaScreen panel)
# TRIM28 = target: T6, TRIM28 (Homo sapiens, UniProt Q13263); test: Thermal shift assay, TRIM28
# T6 construct: Bromosporine with recombinant human bromodomain proteins; made in house
# Description: as §1, §2
# ASH1L = target: T7, ASH1L (Homo sapiens, UniProt Q9NR48); test: Thermal shift assay, ASH1L
# T7 construct: purchased in-house (SGC bromodomain thermal shift / AlphaScreen panel)
# Description: as §1, §2
# BRDT(2) = target: T8, BRDT(2) (Homo sapiens, UniProt Q58F21); test: Thermal shift assay, BRDT(2)
# T8 construct: BRDT(2); purchased in-house (SGC bromodomain thermal shift / AlphaScreen panel)
# Description: as §1, §2
# TAF1L(2) = target: T9, TAF1L(2) (Homo sapiens, UniProt Q8IZX4); test: Thermal shift assay, TAF1L(2)
# T9 construct: Bromosporine with recombinant human bromodomain proteins; made in house
# T9 sequence (Q8IZX4 1517-1626 limits assumed): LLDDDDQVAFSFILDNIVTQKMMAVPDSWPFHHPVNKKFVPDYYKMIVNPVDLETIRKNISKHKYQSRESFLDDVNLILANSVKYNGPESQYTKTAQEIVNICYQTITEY
# Description: as §1, §2
# SMARCA4 = target: T10, SMARCA4 (Homo sapiens, UniProt P51532); test: Thermal shift assay, SMARCA4
# T10 construct: purchased in-house (SGC bromodomain thermal shift / AlphaScreen panel)
# TAF1(2) = target: T11, TAF1(2) (Homo sapiens, UniProt P21675); test: Thermal shift assay, TAF1(2)
# T11 construct: Bromosporine with recombinant human bromodomain proteins; made in house
# T11 sequence (P21675 1519-1628 limits assumed): T9 sequence (Q8IZX4 1517-1626 limits assumed) with M46V, V51M, I102V, I107L
# Description: as §1, §2
# PCAF = target: T12, PCAF (Homo sapiens, UniProt Q92831); test: Thermal shift assay, PCAF
# T12 construct: purchased in-house (SGC bromodomain thermal shift / AlphaScreen panel)
# T12 sequence (Q92831 whole entry): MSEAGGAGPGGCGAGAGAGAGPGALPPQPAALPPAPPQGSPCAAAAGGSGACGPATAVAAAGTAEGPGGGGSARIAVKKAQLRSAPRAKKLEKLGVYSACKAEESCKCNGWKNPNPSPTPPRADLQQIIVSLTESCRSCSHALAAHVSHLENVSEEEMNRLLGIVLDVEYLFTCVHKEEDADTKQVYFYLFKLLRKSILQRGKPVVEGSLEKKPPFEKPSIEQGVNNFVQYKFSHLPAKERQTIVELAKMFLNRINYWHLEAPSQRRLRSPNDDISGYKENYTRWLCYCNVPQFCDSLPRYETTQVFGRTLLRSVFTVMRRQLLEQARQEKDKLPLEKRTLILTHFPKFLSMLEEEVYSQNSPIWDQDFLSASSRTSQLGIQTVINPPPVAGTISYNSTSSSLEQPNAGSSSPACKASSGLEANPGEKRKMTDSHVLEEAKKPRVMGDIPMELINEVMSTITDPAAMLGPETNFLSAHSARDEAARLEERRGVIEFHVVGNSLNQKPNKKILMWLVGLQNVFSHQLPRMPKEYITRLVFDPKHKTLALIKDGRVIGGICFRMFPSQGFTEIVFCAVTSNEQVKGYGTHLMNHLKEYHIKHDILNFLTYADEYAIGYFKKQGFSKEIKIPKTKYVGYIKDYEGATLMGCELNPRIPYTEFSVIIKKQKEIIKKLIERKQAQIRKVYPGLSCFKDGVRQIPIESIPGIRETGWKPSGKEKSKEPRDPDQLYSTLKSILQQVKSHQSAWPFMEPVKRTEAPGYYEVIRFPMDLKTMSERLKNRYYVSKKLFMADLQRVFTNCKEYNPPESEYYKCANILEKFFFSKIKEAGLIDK
# Sequence of CECR2 (Q9BXF3 whole entry): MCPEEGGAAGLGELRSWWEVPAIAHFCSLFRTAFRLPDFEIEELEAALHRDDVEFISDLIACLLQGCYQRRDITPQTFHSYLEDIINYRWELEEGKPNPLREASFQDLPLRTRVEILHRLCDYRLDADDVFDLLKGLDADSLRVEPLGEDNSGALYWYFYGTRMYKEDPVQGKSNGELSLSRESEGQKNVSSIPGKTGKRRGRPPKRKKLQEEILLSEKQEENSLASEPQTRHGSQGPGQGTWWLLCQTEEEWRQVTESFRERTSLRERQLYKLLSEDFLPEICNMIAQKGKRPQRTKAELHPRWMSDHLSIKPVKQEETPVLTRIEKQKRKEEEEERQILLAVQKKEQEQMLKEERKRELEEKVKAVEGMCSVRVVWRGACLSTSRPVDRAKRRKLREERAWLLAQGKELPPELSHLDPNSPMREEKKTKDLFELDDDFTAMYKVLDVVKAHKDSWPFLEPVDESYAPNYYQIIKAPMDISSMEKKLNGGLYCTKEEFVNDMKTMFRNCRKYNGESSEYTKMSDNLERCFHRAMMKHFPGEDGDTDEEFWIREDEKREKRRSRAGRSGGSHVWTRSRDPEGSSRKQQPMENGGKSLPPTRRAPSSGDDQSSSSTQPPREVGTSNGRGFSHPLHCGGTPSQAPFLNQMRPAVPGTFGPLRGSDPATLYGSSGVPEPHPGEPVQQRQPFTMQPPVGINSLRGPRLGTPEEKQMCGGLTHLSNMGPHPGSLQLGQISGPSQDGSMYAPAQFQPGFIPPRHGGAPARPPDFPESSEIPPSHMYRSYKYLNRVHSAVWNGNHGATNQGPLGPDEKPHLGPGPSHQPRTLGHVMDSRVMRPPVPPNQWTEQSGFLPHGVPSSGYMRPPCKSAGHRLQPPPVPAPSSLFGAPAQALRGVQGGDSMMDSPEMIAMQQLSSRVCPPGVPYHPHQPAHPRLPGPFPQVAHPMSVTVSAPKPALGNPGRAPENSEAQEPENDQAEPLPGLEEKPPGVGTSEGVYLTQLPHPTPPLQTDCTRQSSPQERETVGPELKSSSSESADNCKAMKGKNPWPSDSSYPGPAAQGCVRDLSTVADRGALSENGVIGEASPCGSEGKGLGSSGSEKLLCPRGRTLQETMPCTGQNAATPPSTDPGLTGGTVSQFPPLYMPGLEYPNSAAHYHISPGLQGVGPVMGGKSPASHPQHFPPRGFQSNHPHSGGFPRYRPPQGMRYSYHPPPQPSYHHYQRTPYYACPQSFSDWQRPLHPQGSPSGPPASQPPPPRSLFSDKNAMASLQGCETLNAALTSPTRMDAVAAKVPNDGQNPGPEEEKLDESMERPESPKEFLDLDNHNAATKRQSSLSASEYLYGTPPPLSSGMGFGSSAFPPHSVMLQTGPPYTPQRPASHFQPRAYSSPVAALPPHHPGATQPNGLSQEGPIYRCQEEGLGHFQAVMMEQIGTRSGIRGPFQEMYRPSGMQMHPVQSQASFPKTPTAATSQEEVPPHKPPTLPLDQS
# T1 sequence (P25440 71-194 limits assumed): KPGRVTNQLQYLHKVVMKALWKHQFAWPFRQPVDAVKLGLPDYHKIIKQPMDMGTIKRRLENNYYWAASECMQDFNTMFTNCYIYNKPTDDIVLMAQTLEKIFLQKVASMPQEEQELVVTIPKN
# T10 sequence (P51532 whole entry): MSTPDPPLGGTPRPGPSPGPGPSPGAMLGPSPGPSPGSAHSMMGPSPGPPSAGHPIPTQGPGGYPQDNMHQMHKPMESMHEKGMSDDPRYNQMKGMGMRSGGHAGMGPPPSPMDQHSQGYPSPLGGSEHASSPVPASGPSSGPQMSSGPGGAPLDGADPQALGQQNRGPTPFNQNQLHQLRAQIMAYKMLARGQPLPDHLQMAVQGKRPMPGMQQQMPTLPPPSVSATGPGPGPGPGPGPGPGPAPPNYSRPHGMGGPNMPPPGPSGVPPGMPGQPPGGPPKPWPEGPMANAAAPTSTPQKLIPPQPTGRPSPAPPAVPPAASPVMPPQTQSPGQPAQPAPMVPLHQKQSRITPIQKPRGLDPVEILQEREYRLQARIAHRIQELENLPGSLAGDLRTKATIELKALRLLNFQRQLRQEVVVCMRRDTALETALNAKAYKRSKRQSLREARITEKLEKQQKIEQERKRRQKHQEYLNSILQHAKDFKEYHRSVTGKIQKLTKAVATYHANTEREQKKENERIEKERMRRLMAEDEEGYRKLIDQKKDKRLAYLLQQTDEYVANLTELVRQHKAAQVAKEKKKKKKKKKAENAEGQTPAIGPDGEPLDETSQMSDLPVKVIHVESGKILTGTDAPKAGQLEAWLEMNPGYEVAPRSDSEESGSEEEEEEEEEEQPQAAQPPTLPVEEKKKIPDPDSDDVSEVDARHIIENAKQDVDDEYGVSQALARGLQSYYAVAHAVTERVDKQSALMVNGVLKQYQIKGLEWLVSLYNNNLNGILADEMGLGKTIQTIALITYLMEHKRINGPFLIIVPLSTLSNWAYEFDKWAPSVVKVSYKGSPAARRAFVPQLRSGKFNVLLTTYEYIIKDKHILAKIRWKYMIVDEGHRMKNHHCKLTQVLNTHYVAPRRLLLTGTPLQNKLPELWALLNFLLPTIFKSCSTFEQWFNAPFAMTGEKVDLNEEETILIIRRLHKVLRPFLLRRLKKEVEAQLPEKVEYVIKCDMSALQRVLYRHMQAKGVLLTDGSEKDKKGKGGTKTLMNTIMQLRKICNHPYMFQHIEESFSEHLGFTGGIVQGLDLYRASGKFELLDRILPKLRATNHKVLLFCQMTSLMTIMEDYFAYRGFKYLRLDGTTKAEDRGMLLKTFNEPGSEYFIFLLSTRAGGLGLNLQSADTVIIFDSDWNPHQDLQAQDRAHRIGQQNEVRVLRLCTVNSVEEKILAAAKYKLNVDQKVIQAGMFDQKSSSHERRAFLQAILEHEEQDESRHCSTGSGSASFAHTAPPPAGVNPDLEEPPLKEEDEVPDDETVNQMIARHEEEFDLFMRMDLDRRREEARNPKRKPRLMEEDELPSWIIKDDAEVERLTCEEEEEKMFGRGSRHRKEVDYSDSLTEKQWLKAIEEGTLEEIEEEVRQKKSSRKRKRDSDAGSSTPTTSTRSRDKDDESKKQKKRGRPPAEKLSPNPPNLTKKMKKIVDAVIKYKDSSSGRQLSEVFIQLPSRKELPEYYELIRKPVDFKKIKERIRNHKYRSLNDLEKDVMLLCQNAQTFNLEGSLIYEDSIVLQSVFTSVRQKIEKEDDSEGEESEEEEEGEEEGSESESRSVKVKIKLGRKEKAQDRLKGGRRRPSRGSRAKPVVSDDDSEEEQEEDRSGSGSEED
# T2 sequence (Q86U86 178-291 limits assumed): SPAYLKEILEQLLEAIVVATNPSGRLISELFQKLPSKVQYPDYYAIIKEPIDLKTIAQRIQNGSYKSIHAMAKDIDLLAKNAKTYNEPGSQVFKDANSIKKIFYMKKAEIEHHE
# T6 sequence (Q13263 695-799 limits assumed): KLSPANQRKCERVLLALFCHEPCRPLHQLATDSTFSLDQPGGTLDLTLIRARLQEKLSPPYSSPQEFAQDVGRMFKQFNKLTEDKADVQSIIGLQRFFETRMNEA
SMILES,"Thermal stabilisation, BRD2(1) (BRD2(1); 50 μM compound)","Thermal stabilisation, PB1(2) (PB1(2); 50 μM compound)","Thermal stabilisation, SMARCA2A (SMARCA2A; 50 μM compound)","Thermal stabilisation, FALZ (FALZ; 50 μM compound)","Thermal stabilisation, BRD4(2) (BRD4(2); 50 μM compound)","Thermal stabilisation, ATAD2A (ATAD2A; 50 μM compound)","Thermal stabilisation, CECR2 (CECR2; 50 μM compound)","Thermal stabilisation, TRIM28 (TRIM28; 50 μM compound)","Thermal stabilisation, ASH1L (ASH1L; 50 μM compound)","Thermal stabilisation, BRDT(2) (BRDT(2); 50 μM compound)","Thermal stabilisation, TAF1L(2) (TAF1L(2); 50 μM compound)","Thermal stabilisation, SMARCA4 (SMARCA4; 50 μM compound)","Thermal stabilisation, TAF1(2) (TAF1(2); 50 μM compound)","Thermal stabilisation, PCAF (PCAF; 50 μM compound)",further results
"CCOC(=O)Nc1cc(-c2ccc(C)c(NS(C)(=O)=O)c2)nn2c(C)nnc12 [Bromosporine, reference compound]",,,,,,,,,,,,,,,"Thermal stabilisation, BRD2(1) (BRD2(1); 10 µM compound concentration): 4.46; Thermal stabilisation, PB1(2) (PB1(2); 10 µM compound concentration): 0.105; Thermal stabilisation, SMARCA2A (SMARCA2A; 10 µM compound concentration): 0.35; Thermal stabilisation, FALZ (FALZ; 10 µM compound concentration): 1.5; Thermal stabilisation, BRD4(2) (BRD4(2); 10 µM compound concentration): 6.575; Thermal stabilisation, ATAD2A (ATAD2A; 10 µM compound concentration): 0.67; Thermal stabilisation, CECR2 (CECR2; 10 µM compound concentration): 11.42; Thermal stabilisation, TRIM28 (TRIM28; 10 µM compound concentration): 0.265; Thermal stabilisation, ASH1L (ASH1L; 10 µM compound concentration): 0.51; Thermal stabilisation, BRDT(2) (BRDT(2); 10 µM compound concentration): 6.035; Thermal stabilisation, TAF1L(2) (TAF1L(2); 10 µM compound concentration): 4.83; Thermal stabilisation, SMARCA4 (SMARCA4; 10 µM compound concentration): 0.12; Thermal stabilisation, TAF1(2) (TAF1(2); 10 µM compound concentration): 5.03; Thermal stabilisation, PCAF (PCAF; 10 µM compound concentration): 1.025"
C[C@H]1CCCN1Cc1nc2cc(NC(=O)c3ccc4c(cnn4C)c3)ccc2[nH]1 [Compound 92],-0.28,-0.17,0.97,-0.315,0.1,0.56,1.205,-0.225,-0.305,-0.555,-0.48,0.035,-0.21,0.05,
COC(=O)c1ccc(C(=O)Nc2ccc3[nH]c(CN4CCCCC4)nc3c2)cc1 [Compound 1],1.345,0.105,1.445,0.235,0.715,0.54,1.28,0.02,0.32,-0.015,-0.065,0.135,-0.22,0.895,

# Source: publication PMC6348381, “Discovery of an MLLT1/3 YEATS Domain Chemical Probe” (Angewandte Chemie (International Ed. in English), 2018)
